# Measurements published in patent US20040229947A1, “Method of treating hyperactive bladder using phenoxyacetic acid derivatives” (KISSEI PHARMACEUTICAL CO., LTD., priority 2003, published 2004).
# Legend:
# isolated atria = assay: Heart rate of isolated atrial preparations (beta1-AR-stimulated function); set-up: species or system cynomolgus monkey
# Procedure: (§1) The detrusor of the cynomolgus monkey (both sexes) was isolated and dissected. Tracheal, atrial and urethral dissections were also prepared. Then the effect of (−)-2-[4-(2-{[(1S,2R)-2-hydroxy-2-(4-hydroxyphenyl)-1-methylethyl]amino}ethyl)-2,5-dimethylphenoxy] acetic acid on the tone of the detrusor preparation was tested. Carbachol-induced tonic contractions of the tracheal preparations, the heart rate of the atrial preparations and endothelin-1-induced tonic contractions of the urethral preparations were also investigated using the Magnus method.
# isolated trachea = assay: Carbachol-induced tonic contraction of isolated tracheal preparations (beta 2-AR-stimulated function); set-up: species or system cynomolgus monkey; conditions: for effect on carbachol-induced tonic contraction of the isolated trachea: beta 2-AR-stimulated function
# Procedure: as §1
# isolated monkey detrusor = assay: Effects on the tone of the isolated monkey detrusor (Magnus method); conditions: isolated cynomolgus monkey detrusor; for EC50: Primates, read-out: EC50, reduction of the tone of the isolated monkey detrusor
# Procedure: as §1
# isolated urethra = assay: Endothelin-1-induced tonic contraction of isolated urethral preparations; set-up: species or system cynomolgus monkey
# Procedure: as §1
# [1] = system: spinal cord injury-induced overactive bladder; assay: Spinal cord injury-induced overactive bladder model, cystometrogram; assay type: in vivo, rat; conditions: intragastric, 10 mg/kg as free body; 1 hour after administration; FIG. 7
# Procedure: In ether anesthetized rats, spinal transactions were performed at the level of Th9-Th10. Each rat was treated with amikacin 10 mg/body, i.m. for 7 days, and micturition management was done 2 times/day for 2 weeks to prevent over-distension of the bladder. About 6 weeks after the spinal cord operation, rats were anesthetized with pentobarbital sodium and each cannula (PE-50: Nihon Becton Dickinson) was implanted into the urinary bladder and stomach, tunneled subcutaneously, secured on the back of the neck and closed. Seven days after the cannula implantation, cystometrogram was performed. Saline was instilled into the urinary bladder at a rate of 12 mL/hour. The saline instillation was stopped every micturition. After the stable spontaneous small bladder contraction in filling phase was confirmed, ethyl (—)-2-[4-(2-{[(1S,2R)-2-hydroxy-2-(4-hydroxyphenyl)-1-methylethyl]amino}ethyl)-2,5-dimethylphenoxy] acetate hydrochloride (0 (vehicle) or 10 mg/kg as dose of free body) was administered intragastrically. The micturition parameter at 1 hour after the administration of ethyl (−)-2-[4-(2-{[(1S,2R)-2-hydroxy-2-(4-hydroxyphenyl)-1-methylethyl]amino}ethyl)-2,5-dimethylphenoxy] acetate hydrochloride was measured and was expressed as a percentage to that at the pre-administration (0 hour).
# [2] = system: lower urinary tract partially obstructed overactive bladder; assay: Lower urinary tract partially obstructed rat overactive bladder model, cystometrogram; assay type: in vivo; conditions: intragastric
# Procedure: Rats were anesthetized with pentobarbital sodium. After urethra was ligated with a tube (width: 1 mm) by thread, the tube was removed. Six weeks after the lower urinary tract operation, the implanted thread was removed, and each cannula was implanted into the urinary bladder and stomach, tunneled subcutaneously and secured on the back of the neck and closed. The next day, cystometrogram of freely-moved conscious rats were measured. Saline was instilled into the urinary bladder at a rate of 12 mL/hour. The saline instillation was stopped every micturition. After the stable spontaneous small bladder contraction in filling phase was confirmed, ethyl (−)-2-[4-(2-{[(1S,2R)-2-hydroxy-2-(4-hydroxyphenyl)-1-methylethyl]amino}ethyl)-2,5-dimethylphenoxy] acetate hydrochloride (0 (vehicle), 1 or 10 mg/kg as doses of free body) or tolterodine (10 mg/kg) was administered intragastrically. The micturition parameters at 1 hour after the administration of ethyl (−)-2-[4-(2-{[(1S,2R)-2-hydroxy-2-(4-hydroxyphenyl)-1-methylethyl]amino}ethyl)-2,5-dimethylphenoxy] acetate hydrochloride or tolterodine were measured and were expressed as a percentage to that at the pre-administration (0 hour).
# [3] = system: PGE2-induced bladder hyperactivity; assay: Prostaglandin (PG) E2-induced rat overactive bladder model, cystometrogram in conscious rats; assay type: in vivo; conditions: intragastric, 0.1, 1 or 10 mg/kg as free body, 1, 2, 4 hours after administration
# Procedure: Rats were anesthetized with pentobarbital sodium. Each cannula was implanted into the urinary bladder and stomach, tunneled subcutaneously and secured on the back of the neck and closed. Seven days after the cannula implantation, cystometrogram of the freely-moved conscious rats were measured. Saline was continuously instilled into the bladder at a rate of 6 mL/hour, and after the cystometric parameters were stabilized, PGE2 (60 μmol/L)-containing saline was instilled continuously instead of the saline into the bladder. After the stable shortening of the micturition interval was confirmed under the condition, ethyl(−)-2-[4-(2-{[(1S,2R)-2-hydroxy-2-(4-hydroxyphenyl) -1-methylethyl]amino}ethyl)-2,5-dimethylphenoxy] acetate hydrochloride (0 (vehicle), 0.1, 1 or 10 mg/kg as doses of the free body) was administered intragastrically. Cystometric parameters were measured for 4 hours after the administration and were expressed as a percentage to those at the pre-administration (0 hour).
smiles,measurement,setting,value
"Cc1cc(OCC(=O)O)c(C)cc1CCN[C@@H](C)[C@H](O)c1ccc(O)cc1 [(−)-2-[4-(2-{[(1S,2R)-2-hydroxy-2-(4-hydroxyphenyl)-1-methylethyl]amino}ethyl)-2,5-dimethylphenoxy] acetic acid]",effect on heart rate of the isolated atria,isolated atria; beta1-AR-stimulated function,less effect
same,detrusor selectivity compared with the atria,isolated atria; detrusor versus atria,~80 times
same,effect on carbachol-induced tonic contraction of the isolated trachea,isolated trachea,less effect
same,detrusor selectivity compared with the trachea,isolated trachea; detrusor versus trachea,about 1200 times
same,EC50,isolated monkey detrusor,820 nM
same,effect on endothelin-1-induced tonic contraction of the isolated urethra,isolated urethra,no effect
"CCOC(=O)COc1cc(C)c(CCN[C@@H](C)[C@H](O)c2ccc(O)cc2)cc1C.Cl [Compound 1, ethyl (−)-2-[4-(2-{[(1S,2R)-2-hydroxy-2-(4-hydroxyphenyl)-1-methylethyl]amino}ethyl)-2,5-dimethyl-phenoxy] acetate hydrochloride]",frequency of spontaneous small bladder contraction in filling phase,[1],decreased the frequency
same,amplitude of spontaneous small bladder contractions in filling phase,"[2]; 1 or 10 mg/kg as free body, 1 hour after administration, FIG. 8",decreased the amplitude
same,frequency of spontaneous small bladder contractions in filling phase,"[2]; 1 or 10 mg/kg as free body, 1 hour after administration, FIG. 9",decreased
same,micturition pressure,"[2]; 1 or 10 mg/kg as free body, 1 hour after administration, FIG. 10",did not affect the micturition pressure
same,potency on spontaneous small bladder contractions relative to tolterodine,"[2]; tolterodine 10 mg/kg, FIGS. 8 and 9",stronger than that of tolterodine
same,micturition interval,[3]; FIGS. 1 to 3,prolonged the micturition interval
same,micturition volume,[3]; FIGS. 4 to 6,increased the micturition volume dose-dependently
"CC(C)NCC(O)c1ccc(O)c(O)c1 (centres unmarked) [isoproterenol, reference compound]",effect on carbachol-induced tonic contraction of the isolated trachea,isolated trachea,reduced the carbachol-induced tonic contraction
same,EC50,isolated monkey detrusor,190 nM
CCN(CC)CC#CCOC(=O)C(O)(c1ccccc1)C1CCCCC1 (centres unmarked) [oxybutynin],relaxation of the isolated monkey detrusor,isolated monkey detrusor,No significant relaxation
CCCOC(C(=O)OC1CCN(C)CC1)(c1ccccc1)c1ccccc1 [propiverine],relaxation of the isolated monkey detrusor,isolated monkey detrusor,No significant relaxation
